From PMC5458211, “Mitochondrial VDAC1-based peptides: Attacking oncogenic properties in glioblastoma” (Oncotarget, 2017) come the findings set out here.

Non-standard residues stand in square brackets, D forms with d. Residues, ends and D or L forms follow the SMILES beside them.

The subject of one assay is U-87MG xenograft tumors. The assay can be described thus: TUNEL staining of xenograft tumor sections. In kind it is in vivo, human U-87MG in nude mice. The conditions noted are these: s.c. U-87MG tumor sections; Fig 4A. The text has this:
Red color indicates PI nuclear staining and green color TUNEL staining. B. Representative sections from PBS/DMSO- and peptide-TTs IHC stained for p53, Cyto c, AIF, Caspase 3 and Smac/Diablo and then hematoxylin-stained and visualized by microscopy. C. Tissue lysates obtained from controls and several Tf-D-LP4-TTs were immunoblotted for p53, Caspase 8, Cyto c, Smac/Diablo, Caspase 3 and Bcl-2. D. Quantitative analysis of immunoblots is shown (n=2-4).
Paraffin-embedded -fixed tumors sections were processed for a TUNEL assay using the DeadEnd Fluorometric TUNEL system (Promega) according to the manufacturer's instructions. Sections were deparaffinized, equilibrated in PBS, permeabilized with proteinase K, post-fixed in 4% paraformaldehyde, and incubated in TdT reaction mix for 1 h at 37 °C in the dark. Slides were then washed in 2X SSC buffer and counterstained with propidium iodide (1 μg/ml), and cover-slipped with Vectashield mounting medium. Fluorescent images of apoptotic cells (green) and cell nuclei (red) were captured using a confocal microscope (Olympus 1×81).

Another assay relates to U-251MG cells. The assay can be described thus: Cell death by PI staining and flow cytometry, U-251MG. The format is cell-based, human. Conditions: 6 h at 37°C, serum-free medium, means ± SD (n=3), Fig 1H, read-out: IC50 for inducing cell death. The text has this: Figure 1 VDAC1-based peptides induce dramatic cell death of several brain tumor-derived cell lines but to lesser extent in primary brain cells A. IHC staining of VDAC1 of human normal brain (n=13) or glioblastoma (n=41) in tissue array slides (Biomax), as described in Materials and methods available online in Supplemental information. Percentages of sections stained at the intensity indicated are shown. […] The VDAC1-derived sequences Δ(1-14)N-terminus and LP4 are in green and pink, respectively. The cell-penetrating peptides Antp and Tf are in orange and blue, respectively. The loop shape of LP4 stabilized by a tryptophan zipper is in purple. The amino acids of Δ(1-14)N-terminus, LP4 and Antp are in the D configuration. The sequences of D-LP4 and Retro-D-LP4 are presented below. C. […] Cells were harvested, washed twice with PBS and cell death was analyzed by propidium iodide (PI) staining and flow cytometry. […] Cells were harvested, washed twice with PBS and cell death was analyzed by PI staining and flow cytometry. […]
Cells (6×10^5 /ml) were incubated in 500 μl serum-free medium with the peptide of interest for 6 h at 37°C in the presence of 5% CO2. The cells were then trypsinized, centrifuged (1500xg, 5 min), washed with PBS and analyzed for cell death using propidium iodide (PI) staining and flow cytometer (Beckton-Dickinson, San Jose, CA) and BD CellQuest Pro software. […]

The next assay deals with G7 stem cells. The assay can be described thus: Apoptosis by FITC-Annexin V/PI staining and flow cytometry, G7. In kind it is cell-based, GBM patient. The conditions noted are these: 3 h at 37°C, Fig 6G-H. The method, then: Sections were also hematoxylin-stained and visualized by microscopy. B. Tissue lysates obtained from controls and several TF-D-LP4-TTs were immunoblotted for Nestin, Sox2, NGFR, CD133, and Klf4. C. Quantitative analysis of immunoblots is shown (n=2-4). D. Immunoblot analysis of, Klf4, Sox2, Nestin and Musashi expression in U-87MG and G7 cell lines, using specific antibodies. E. Quantitative analysis of immunoblots. […] G. G7 (·) and U-87MG cells (○) (2×10^5) were incubated for 3 h with the DMSO (0.15%) or with the indicated concentration of Retro-Tf-D-LP4 peptide in serum-free growth medium at 37°C and then subjected to FITC-Annexin V/PI staining and flow cytometry analysis. H. Representative FACS analysis of DMSO- (left) and 5 μM of Retro-Tf-D-LP4- (right) treated G7 or U-87MG cells.
Cells (6×10^5 /ml) were incubated in 500 μl serum-free medium with the peptide of interest for 6 h at 37°C in the presence of 5% CO2. The cells were then trypsinized, centrifuged (1500xg, 5 min), washed with PBS and analyzed for cell death using propidium iodide (PI) staining and flow cytometer (Beckton-Dickinson, San Jose, CA) and BD CellQuest Pro software. Apoptotic cell death was also analyzed by PI and annexin V-FITC staining, and by acridine orange and ethidium bromide staining and light microscopy (Olympus LX2-KSP).

In the case of `CC[C@@H](C)[C@@H](NC(=O)[C@@H](CCCCN)NC(=O)[C@H](NC(=O)[C@@H](CCC(N)=O)NC(=O)[C@@H](CCCNC(=N)N)NC(=O)[C@@H](CC(C)C)NC(=O)CNC(=O)[C@@H](Cc1ccccc1)NC(=O)CNC(=O)[C@@H](Cc1ccc(O)cc1)NC(=O)CNC(=O)[C@@H](CCCCN)NC(=O)[C@H](NC(=O)[C@@H](Cc1ccccc1)NC(=O)[C@H](NC(=O)[C@@H](CC(=O)O)NC(=O)[C@H](N)CCCNC(=N)N)C(C)C)[C@H](C)O)[C@H](C)CC)C(=O)N[C@H](Cc1c[nH]c2ccccc12)C(=O)N[C@H](Cc1ccccc1)C(=O)N[C@H](CCC(N)=O)C(=O)N[C@H](CC(N)=O)C(=O)N[C@H](CCCNC(=N)N)C(=O)N[C@H](CCCNC(=N)N)C(=O)N[C@H](CCSC)C(=O)N[C@H](CCCCN)C(=O)N[C@H](Cc1c[nH]c2ccccc12)C(=O)N[C@H](CCCCN)C(=O)N[C@H](CCCCN)C(=O)O` [D-ΔN-Ter-Antp] (H-[dR][dD][dV][dF][dT][dK]G[dY]G[dF]G[dL][dR][dQ][dI][dK][dI][dW][dF][dQ][dN][dR][dR][dM][dK][dW][dK][dK]-OH; N-terminus and C-terminus assumed), in the assay on U-87MG xenograft tumors, the TUNEL-positive cells result was “the majority of the cells were TUNEL-positive”. The half-maximal inhibitory concentration (IC50) in the assay on U-251MG cells worked out at 4.7 ± 0.9 µM.
With `CC[C@H](C)[C@H](NC(=O)[C@H](Cc1ccc(O)cc1)NC(=O)[C@@H]1CCCN1C(=O)[C@H](CCCNC(=N)N)NC(=O)[C@H](Cc1c[nH]cn1)NC(=O)[C@H](CO)NC(=O)[C@H](Cc1c[nH]c2ccccc12)NC(=O)[C@@H](NC(=O)[C@H](Cc1c[nH]c2ccccc12)NC(=O)[C@H](CCC(=O)O)NC(=O)[C@@H](CCCCN)NC(=O)[C@@H](CCCCN)NC(=O)[C@@H](CC(C)C)NC(=O)[C@@H](CCC(=O)O)NC(=O)[C@H](NC(=O)[C@@H](C)NC(=O)[C@H](NC(=O)[C@@H](CC(N)=O)NC(=O)[C@@H](CC(C)C)NC(=O)[C@@H](C)NC(=O)[C@@H](Cc1c[nH]c2ccccc12)NC(=O)[C@H](NC(=O)[C@@H](C)NC(=O)CNC(=O)[C@@H](CC(N)=O)NC(=O)[C@@H](CO)NC(=O)[C@@H](CC(N)=O)NC(=O)[C@H](CCCCN)NC(=O)[C@H](Cc1c[nH]c2ccccc12)NC(=O)[C@@H](NC(=O)[C@H](Cc1c[nH]c2ccccc12)NC(=O)[C@@H](N)CCCCN)[C@@H](C)O)[C@H](C)O)C(C)C)[C@H](C)O)[C@@H](C)O)C(=O)N[C@@H](C)C(=O)N[C@@H](Cc1c[nH]cn1)C(=O)O` [Retro-Tf-D-LP4], the “apoptosis of G7 stem cells” value with G7 stem cells was “induces apoptosis”.
On to `CC[C@H](C)[C@H](NC(=O)[C@H](C)NC(=O)[C@@H](N)Cc1c[nH]cn1)C(=O)N[C@@H](Cc1ccc(O)cc1)C(=O)N1CCC[C@H]1C(=O)N[C@@H](CCCNC(=N)N)C(=O)N[C@@H](Cc1c[nH]cn1)C(=O)N[C@@H](CO)C(=O)N[C@@H](Cc1c[nH]c2ccccc12)C(=O)N[C@H](C(=O)N[C@@H](Cc1c[nH]c2ccccc12)C(=O)N[C@@H](CCC(=O)O)C(=O)N[C@H](CCCCN)C(=O)N[C@H](CCCCN)C(=O)N[C@H](CC(C)C)C(=O)N[C@H](CCC(=O)O)C(=O)N[C@@H](C(=O)N[C@H](C)C(=O)N[C@@H](C(=O)N[C@H](CC(N)=O)C(=O)N[C@H](CC(C)C)C(=O)N[C@H](C)C(=O)N[C@H](Cc1c[nH]c2ccccc12)C(=O)N[C@@H](C(=O)N[C@H](C)C(=O)NCC(=O)N[C@H](CC(N)=O)C(=O)N[C@H](CO)C(=O)N[C@H](CC(N)=O)C(=O)N[C@@H](CCCCN)C(=O)N[C@@H](Cc1c[nH]c2ccccc12)C(=O)N[C@H](C(=O)N[C@@H](Cc1c[nH]c2ccccc12)C(=O)N[C@@H](CCCCN)C(=O)O)[C@@H](C)O)[C@H](C)O)C(C)C)[C@H](C)O)[C@@H](C)O` [Tf-D-LP4], for which, in the assay on U-87MG xenograft tumors, the TUNEL-positive cells entry is given as “the majority of the cells were TUNEL-positive”.
